# System: SSTR2 mutants
# Experiment: SSTRs Gi-mediated cAMP inhibition, GloSensor, HEK293, 5 μM forskolin, 15 min room temperature (SSTR2 mutants)
# Type: cell-based, human
# Settings: for Fold of WT: Gi signaling EC50
# Protocol: The levels of the intracellular 3′, 5′-cyclic AMP (cAMP) were measured by the GloSensor cAMP assay (Promega) as described in the previous studies[28],[41] which has been widely used. The human full-length SSTRs and mutants were cloned into the pcDNA3.1+ vector with a HA signal sequence followed by a Flag tag at the N-terminus. HEK293 cells (ATCC, CRL-1573) were seeded into 6-well microplates at a density of 1.0 × 10^6 cells/well and cultured for 24 h at 37 °C with 5% CO2. Cells were then co-transfected with SSTR wild-type or mutants and GloSensor plasmids. After 24 h of transfection, the cells were dissociated with TrypLE™ Express Enzyme (1X) (Thermo Fisher Scientific) and collected by centrifugation at 500 × g for 5 min. Then the collected cells were suspended in Hank’s balanced salt solution [HBSS (Thermo Fisher Scientific)] supplemented with […] (YEASEN), and then the suspension cells were seeded into 96-well plates with 90 μl/well. After incubating at room temperature for 40 min, 5 μM forskolin and ligands diluted in HBSS were added to each well and the plates were incubated at room temperature for 15 min. […] were measured using the Synergy H1 microplate reader (BioTek) and the data presented are means of at least three independent experiments.
# [1] = Gi signaling, SSTR2 D295(7.36)A, n=3
# [2] = Gi signaling, SSTR2 F127(3.37)A, n=3
# [3] = Gi signaling, SSTR2 F208(5.38)A, n=3
# [4] = Gi signaling, SSTR2 F265(6.44)A, n=3
# [5] = Gi signaling, SSTR2 F294(7.35)A, n=3
# [6] = Gi signaling, SSTR2 I130(3.40)A, n=3
# [7] = Gi signaling, SSTR2 I195(45.52)A, n=3
# [8] = Gi signaling, SSTR2 I284ECL3A, n=3
# [9] = Gi signaling, SSTR2 K291(7.32)A, n=3
# [10] = Gi signaling, SSTR2 L99(2.60)A, n=3
# [11] = Gi signaling, SSTR2 N276(6.55)A, n=3
# [12] = Gi signaling, SSTR2 P220(5.50)A, n=3
# [13] = Gi signaling, SSTR2 Q102(2.63)A, n=3
# [14] = Gi signaling, SSTR2 T194(45.51)A, n=3
# [15] = Gi signaling, SSTR2 V103(2.64)A, n=3
# [16] = Gi signaling, SSTR2 W269(6.48)A, n=3
# [17] = Gi signaling, SSTR2 Y50(1.39)A, n=3
# [18] = Gi signaling, SSTR2 Y205(5.35)A, n=3
# [19] = Gi signaling, SSTR2 Y302(7.43)A, n=3
smiles,measurement,setting,value
N#Cc1cccc(-c2ccc3ncc(-c4cc(F)cc(F)c4)c(N4CCC(N)CC4)c3c2)c1O [paltusotine],Fold of WT,SSTR2 Y50(1.39)A,1.90
same,Fold of WT,SSTR2 Y205(5.35)A,0.26
same,Fold of WT,SSTR2 Y302(7.43)A,6.27
same,EC50,[1],2.46 ± 1.67 nM
same,Emax,[1],107.80±3.11 %WT
same,EC50,[2],1.02 ± 1.29 nM
same,Emax,[2],107.70±2.32 %WT
same,EC50,[3],64.2 ± 2.53 nM
same,Emax,[3],91.78±2.89 %WT
same,EC50,[4],11.9 ± 1.45 nM
same,Emax,[4],113.70±4.57 %WT
same,EC50,"Gi signaling, SSTR2 F272A, n=3",63.1 ± 4.1 nM
same,Emax,"Gi signaling, SSTR2 F272A, n=3",57.21±2.64 %WT
same,EC50,[5],2.64 ± 1.26 nM
same,Emax,[5],100.30±10.53 %WT
same,EC50,[6],19 ± 2.64 nM
same,Emax,[6],116.50±4.76 %WT
same,EC50,[7],83.4 ± 1.65 nM
same,Emax,[7],106.20±8.71 %WT
same,EC50,[8],1.22 nM
same,Emax,[8],113.80±5.04 %WT
same,EC50,[9],5.22 ± 8.67 nM
same,Emax,[9],97.49±6.65 %WT
same,EC50,[10],17.1 ± 5.16 nM
same,Emax,[10],107.80±2.34 %WT
same,EC50,[11],1.65 ± 3.51 nM
same,Emax,[11],89.08±4.63 %WT
same,EC50,[12],3.22 ± 1.38 nM
same,Emax,[12],116.00±5.23 %WT
same,EC50,[13],31 ± 6.59 nM
same,Emax,[13],97.26±5.45 %WT
same,EC50,[14],97.7 ± 2.2 nM
same,Emax,[14],85.51±3.13 %WT
same,EC50,[15],33 ± 2.87 nM
same,Emax,[15],87.33±6.38 %WT
same,EC50,[16],0.44 nM
same,Emax,[16],98.94±12.38 %WT
same,EC50,[17],3.6 ± 6.86 nM
same,Emax,[17],106.10±0.90 %WT
same,EC50,[18],0.48 nM
same,Emax,[18],98.71±2.78 %WT
same,EC50,[19],11.8 ± 3.12 nM
same,Emax,[19],55.80±2.34 %WT
same,EC50,"I195A, run 1, best-fit",83.4 nM
same,LogEC50,"I195A, run 1, best-fit",-7.079
same,EC50,"I195A, run 2, best-fit",112 nM
same,LogEC50,"I195A, run 2, best-fit",-6.952
same,EC50,"I195A, run 3, best-fit",54.8 nM
same,LogEC50,"I195A, run 3, best-fit",-7.261
same,Bottom (best-fit),"I195M, run 1",2.531
same,EC50,"I195M, run 1",8.24 nM
same,LogEC50,"I195M, run 1",-8.084
same,Span (best-fit),"I195M, run 1",94.08
same,Top (best-fit),"I195M, run 1",96.61
same,Bottom (best-fit),"I195M, run 2",-2.367
same,EC50,"I195M, run 2",4.64 nM
same,LogEC50,"I195M, run 2",-8.333
same,Span (best-fit),"I195M, run 2",106.3
same,Top (best-fit),"I195M, run 2",103.9
same,EC50,"I284A, run 1, best-fit",1.25 nM
same,LogEC50,"I284A, run 1, best-fit",-8.902
same,EC50,"I284A, run 2, best-fit",1.14 nM
same,LogEC50,"I284A, run 2, best-fit",-8.945
same,EC50,"I284A, run 3, best-fit",1.28 nM
same,LogEC50,"I284A, run 3, best-fit",-8.894
same,"Bottom (best-fit value), cAMP inhibition",K291A-1 (run 1),1.006
same,"LogEC50 (best-fit value), cAMP inhibition",K291A-1 (run 1),-8.362
same,"Span (best-fit value), cAMP inhibition",K291A-1 (run 1),92.81
same,"Top (best-fit value), cAMP inhibition",K291A-1 (run 1),93.82
same,"Bottom (best-fit value), cAMP inhibition",K291A-2 (run 2),-4.234
same,"LogEC50 (best-fit value), cAMP inhibition",K291A-2 (run 2),-8.83
same,"Span (best-fit value), cAMP inhibition",K291A-2 (run 2),114.6
same,"Top (best-fit value), cAMP inhibition",K291A-2 (run 2),110.4
same,"Bottom (best-fit value), cAMP inhibition",K291A-3 (run 3),-10.93
same,"LogEC50 (best-fit value), cAMP inhibition",K291A-3 (run 3),-8.158
same,"Span (best-fit value), cAMP inhibition",K291A-3 (run 3),99.18
same,"Top (best-fit value), cAMP inhibition",K291A-3 (run 3),88.26
same,EC50,"L99A, run 1, best-fit",6.78 nM
same,LogEC50,"L99A, run 1, best-fit",-8.169
same,EC50,"L99A, run 2, best-fit",22.1 nM
same,LogEC50,"L99A, run 2, best-fit",-7.655
same,EC50,"L99A, run 3, best-fit",22.4 nM
same,LogEC50,"L99A, run 3, best-fit",-7.65
same,"Bottom (best-fit value), cAMP inhibition",N276A-1 (run 1),-4.414
same,"LogEC50 (best-fit value), cAMP inhibition",N276A-1 (run 1),-9.003
same,"Span (best-fit value), cAMP inhibition",N276A-1 (run 1),102.7
same,"Top (best-fit value), cAMP inhibition",N276A-1 (run 1),98.25
same,"Bottom (best-fit value), cAMP inhibition",N276A-2 (run 2),-3.382
same,"LogEC50 (best-fit value), cAMP inhibition",N276A-2 (run 2),-8.659
same,"Span (best-fit value), cAMP inhibition",N276A-2 (run 2),88.97
same,"Top (best-fit value), cAMP inhibition",N276A-2 (run 2),85.59
same,"Bottom (best-fit value), cAMP inhibition",N276A-3 (run 3),-1.142
same,"LogEC50 (best-fit value), cAMP inhibition",N276A-3 (run 3),-8.752
same,"Span (best-fit value), cAMP inhibition",N276A-3 (run 3),84.55
same,"Top (best-fit value), cAMP inhibition",N276A-3 (run 3),83.41
same,Bottom (best-fit value),P220A-1 (run 1),6.519
same,LogEC50 (best-fit value),P220A-1 (run 1),-8.456
same,Span (best-fit value),P220A-1 (run 1),112
same,Top (best-fit value),P220A-1 (run 1),118.5
same,Bottom (best-fit value),P220A-2 (run 2),4.552
same,LogEC50 (best-fit value),P220A-2 (run 2),-8.51
